According to PubChem BioAssay AID1199 (EPA DSSTox, 2008):
Activity calls are given as the source filed them.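 The calls were made as follows: active = a tumour-causing dose and a tumour site recorded for mice in at least one sex group; inconclusive = only government mouse studies exist and were judged inadequate; inactive = mouse studies exist but none gave tumours.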

System: mouse carcinogenicity bioassay, TD50 from CPDB
Test: DSSTox (CPDBAS) Carcinogenic Potency Database Summary Mouse Bioassay Results
Conditions: TD50_Mouse_Note: TD50 is harmonic mean of more than one positive test; TargetSites_Mouse_Female: lung
How it was run: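 Values are TD50 carcinogenic potencies from mouse chronic bioassays, taking the most positive result for each sex-species. Sources are published literature and NCI/NTP studies; target sites reflect author-reported positive findings.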

**Q.** NN was tested. Which Potency did it give?
**A.** 0.0914 mmol/kg/day

Same assay, conditions: TD50_Mouse_Note: no positive results; TargetSites_Mouse_Female: no positive results

**Q.** How did the outcome turn out when C[N+](C)(C)CCCl was run?
**A.** inactive; no positive results

**Q.** For c1ccc2sc(SNC3CCCCC3)nc2c1, which outcome is on record?
**A.** inactive; no positive results

**Q.** How did the outcome turn out when CC(Cl)Cl was run?
**A.** inactive; no positive results

**Q.** How did the outcome turn out when O=S1(=O)CC=CC1 was run?
**A.** inactive; no positive results

**Q.** How did the outcome turn out when O=C(O)c1ccc([N+](=O)[O-])cc1 was run?
**A.** inactive; no positive results
